Values after ≈ are worked out from the molar mass of the structure shown.
Test: Solubility in fasted-state simulated colonic fluid (FaSSCoF) at pH 6.5
Format: physicochemical
Conditions: 25 °C, pH 6.5, fassgf or other biorelevant, thermodynamic from solid
Protocol: The solubilities of compounds of the invention in FaSSCoF at pH 6.5 are determined using a modification of a previously-reported procedure (Vertzoni, M., et al. Pharm. Res. 2010, 27, 2187-2196). In place of the bile salt extract employed in the original procedure (which extract is no longer available), the modified procedure uses a mixture of sodium taurochlorate (0.15 g), glycocholic acid (0.15 g), ursodeoxycholic acid (0.05 g), cholic acid (0.05 g), and glycodeoxycholic acid (0.05 g). These five bile acids are ground together with a mortar and pestle to produce a fine white powder that is incorporated into the FaSSCoF, as outlined below.
Tris(hydroxymethyl)aminomethane (Tris; 0.275 g) and maleic acid (0.44 g) are dissolved in water (35 mL) to give a solution whose pH is adjusted to 6.5 by treatment with 0.5M NaOH (ca. 12 mL). The solution is then made up to 50 mL with water. A portion of this Tris/maleate buffer solution (ca. 25 mL) is added to a 0.5 L round-bottomed flask, before being treated with 0.00565 g of the bile acid mixture described above. Solutions of phosphatidylcholine (0.0111 g) in DCM (0.15 mL) and palmitic acid (0.0013 g) in DCM (0.15 mL) are added, then the organic solvent is evaporated off under reduced pressure at 40° C. until a clear solution, with no perceptible DCM odour, is achieved. The volume of the evaporated solution is adjusted to 50 mL by addition of the remainder of Tris/maleate buffer, then BSA (0.115 g) is added, before being dissolved by gentle agitation.
Test compounds are suspended in the pH 6.5 FaSSCoF medium to give a maximum final concentration of 2-10 mg/mL. The suspensions are equilibrated at 25° C. for 24 h, before being filtered through a glass fibre C filter. The filtrates are then diluted as appropriate for injection and quantification by HPLC with reference to a standard. Different volumes of the standard, diluted and undiluted sample solutions are injected and the solubilities are calculated using the peak areas determined by integration of the peak found at the same retention time as the principal peak in the standard injection.

[1] = pH 6.5 FaSSCoF Solubility (mg/mL) Run 1
[2] = pH 6.5 FaSSCoF Solubility (mg/mL) Run 2

| SMILES | solubility thermodynamic at 24 h [1] [µg/mL] | solubility thermodynamic at 24 h [2] [µg/mL] | solubility thermodynamic at 24 h (pH 6.5 FaSSCoF Solubility (mg/mL) Run 3) [µg/mL] | solubility thermodynamic at 24 h (pH 6.5 FaSSCoF Solubility (mg/mL) Run 4) [µg/mL] |
| --- | --- | --- | --- | --- |
| COc1cc(Nc2cc(Oc3ccc(NC(=O)Nc4cc(C(C)(C)C)cc(NS(C)(=O)=O)c4OC)c4ccccc34)ccn2)ccc1S(=O)(=O)CCCN1CCOCC1 [Example 20, N-(5-(tert-Butyl)-2-methoxy-3-(3-(4-((2-((3-methoxy-4-((3-morpholinopropyl)sulfonyl)phenyl)-amino)pyridin-4-yl)oxy)naphthalen-1-yl)ureido)phenyl)methanesulfonamide] | 4 (≈ 4.72 µM) | – | – | – |
| COc1c(NC(=O)Nc2ccc(Oc3ccnc(Nc4ccc(C(=O)NCCN5CCOCC5)c(N(C)C)c4)c3)c3ccccc23)cc(C(C)(C)C)cc1NS(C)(=O)=O [Example 21, 4-((4-((4-(3-(5-(tert-Butyl)-2-methoxy-3-(methylsulfonamido)phenyl)ureido)naphthalen-1-yl)oxy)pyridin-2-yl)amino)-2-(dimethylamino)-N-(2-morpholinoethyl)benzamide] | 10 (≈ 12.1 µM) | 10 (≈ 12.1 µM) | – | – |
| COc1cc(Nc2cc(Oc3ccc(NC(=O)Nc4cc(C(C)(C)C)cc(NS(C)(=O)=O)c4OC)c4ccccc34)ccn2)cc(OC)c1C(=O)NCCCN1CCOCC1 [Example 23, 4-((4-((4-(3-(5-(tert-Butyl)-2-methoxy-3-(methylsulfonamido)phenyl)ureido)naphthalen-1-yl)oxy)pyridin-2-yl)amino)-2,6-dimethoxy-N-(3-morpholinopropyl)benzamide] | 8 (≈ 9.35 µM) | 8 (≈ 9.35 µM) | – | – |
| COc1cc(Nc2cc(Oc3ccc(NC(=O)Nc4cc(C(C)(C)C)cc(NS(C)(=O)=O)c4OC)c4ccccc34)ccn2)ccc1C(=O)NCCN1CCN(C2CC2)CC1 [Example 26, 4-((4-((4-(3-(5-(tert-Butyl)-2-methoxy-3-(methylsulfonamido)phenyl)ureido)naphthalen-1-yl)oxy)pyridin-2-yl)amino)-N-(2-(4-cyclopropylpiperazin-1-yl)ethyl)-2-methoxybenzamide] | 11 (≈ 12.9 µM) | 11 (≈ 12.9 µM) | – | – |

More lines, now with the values ahead:

| solubility thermodynamic at 24 h [1] [µg/mL] | solubility thermodynamic at 24 h [2] [µg/mL] | solubility thermodynamic at 24 h (pH 6.5 FaSSCoF Solubility (mg/mL) Run 3) [µg/mL] | solubility thermodynamic at 24 h (pH 6.5 FaSSCoF Solubility (mg/mL) Run 4) [µg/mL] | SMILES |
| --- | --- | --- | --- | --- |
| 5 (≈ 6.04 µM) | 5 (≈ 6.04 µM) | – | – | COc1cc(Nc2cc(Oc3ccc(NC(=O)Nc4cc(C(C)(C)C)cc(NS(C)(=O)=O)c4OC)c4ccccc34)ccn2)ccc1C(=O)NCC[N+]1([O-])CCOCC1 [Example 33, 4-(2-(4-((4-((4-(3-(5-(tert-Butyl)-2-methoxy-3-(methylsulfonamido)phenyl)ureido)naphthalen-1-yl)oxy)pyridin-2-yl)amino)-2-methoxybenzamido)ethyl)morpholine 4-oxide] |
| 25 (≈ 28.2 µM) | 24 (≈ 27.1 µM) | 7 (≈ 7.91 µM) | 6 (≈ 6.78 µM) | COc1cc(Nc2cc(Oc3ccc(NC(=O)Nc4cc(C(C)(C)C)cc(NS(C)(=O)=O)c4OC)c4ccccc34)ccn2)cc(OC)c1C(=O)NCCN1CCN(CCO)CC1 [Example 37, 4-((4-((4-(3-(5-(tert-Butyl)-2-methoxy-3-(methylsulfonamido)phenyl)ureido)naphthalen-1-yl)oxy)pyridin-2-yl)amino)-N-(2-(4-(2-hydroxyethyl)piperazin-1-yl)ethyl)-2,6-dimethoxybenzamide] |
| 5 (≈ 5.87 µM) | 5 (≈ 5.87 µM) | – | – | COc1cc(Nc2cc(Oc3ccc(NC(=O)Nc4cc(C(C)(C)C)cc(NS(C)(=O)=O)c4OC)c4ccccc34)ccn2)ccc1S(=O)(=O)CCOCCOCCO [Example 40, N-(5-(tert-Butyl)-3-(3-(4-((2-((4-((2-(2-(2-hydroxyethoxy)ethoxy)ethyl)sulfonyl)-3-methoxyphenyl)amino)pyridin-4-yl)oxy)naphthalen-1-yl)ureido)-2-methoxyphenyl)-methanesulfonamide] |
| 7 (≈ 8.4 µM) | 9 (≈ 10.8 µM) | – | – | COc1cc(Nc2cc(Oc3ccc(NC(=O)Nc4cc(C(C)(C)C)cc(NS(C)(=O)=O)c4OC)c4ccccc34)ccn2)ccc1C(=O)NC[C@H](O)[C@H](O)[C@H](O)CO [Example 42, 4-((4-((4-(3-(5-(tert-Butyl)-2-methoxy-3-(methylsulfonamido)phenyl)ureido)naphthalen-1-yl)oxy)pyridin-2-yl)amino)-2-methoxy-N-((2S,3S,4R)-2,3,4,5-tetrahydroxypentyl)benzamide] |

— patent publication US9751837B2, “Kinase inhibitors” (RESPIVERT LIMITED, priority 2014, dated 2017)
